Reference: the kinase profiling compilation of Christmann-Franck et al. (2016)
Several values for one entry are separate records, joined by “and”; a condition that tells them apart may be missing. Equal values may be shown once.

Columns and labels:
Assay in all cases: radiometric filter-binding kinase assay, Kinase HotSpot
Conditions in all cases: compound 0.5 µM; ATP 10 µM
CDC42BPA (human) = CDC42BPA (human) (UniProt Q5VT25)
MAP3K11 (human) = MAP3K11 (human) (UniProt Q16584)
STK3 (human) = STK3 (human) (UniProt Q13188)
MELK (human) = MELK (human) (UniProt Q14680)
PIM2 (human) = PIM2 (human) (UniProt Q9P1W9)
CSNK2A1 (human) = CSNK2A1 (human) (UniProt P68400)
PRKCA (human) = PRKCA (human) (UniProt P17252)
ABL1 (human) = ABL1 (human) (UniProt P00519)
MST4 (human) = MST4 (human) (UniProt Q9P289)
Chain of MST4 (human) (Q9P289 whole entry, looked up): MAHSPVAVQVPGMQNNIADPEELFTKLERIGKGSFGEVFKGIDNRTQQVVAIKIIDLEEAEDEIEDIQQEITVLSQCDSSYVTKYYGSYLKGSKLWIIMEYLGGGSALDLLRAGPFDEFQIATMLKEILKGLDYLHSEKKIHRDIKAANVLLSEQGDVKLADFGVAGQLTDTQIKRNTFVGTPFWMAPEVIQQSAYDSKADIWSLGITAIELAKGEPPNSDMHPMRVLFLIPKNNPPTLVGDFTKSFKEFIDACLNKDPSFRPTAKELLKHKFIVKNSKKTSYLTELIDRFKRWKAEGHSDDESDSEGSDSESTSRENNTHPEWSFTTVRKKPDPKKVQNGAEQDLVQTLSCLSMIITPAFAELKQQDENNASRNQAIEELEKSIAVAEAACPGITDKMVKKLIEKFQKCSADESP

PRKCG (human) = PRKCG (human) (UniProt P05129)
FYN (human) = FYN (human) (UniProt P06241)
DSTYK (human) = DSTYK (human) (UniProt Q6XUX3)
PAK4 (human) = PAK4 (human) (UniProt O96013)
PBK (human) = PBK (human) (UniProt Q96KB5)
DAPK2 (human) = DAPK2 (human) (UniProt Q9UIK4)
MAP4K5 (human) = MAP4K5 (human) (UniProt Q9Y4K4)
PRKG2 (human) = PRKG2 (human) (UniProt Q13237)
CDK5 CDK5R1 p35 (human) = CDK5 CDK5R1 p35 (human) (UniProt Q00535+Q15078)
PKN2 (human) = PKN2 (human) (UniProt Q16513)
Chain of PKN2 (human) (Q16513 whole entry, looked up): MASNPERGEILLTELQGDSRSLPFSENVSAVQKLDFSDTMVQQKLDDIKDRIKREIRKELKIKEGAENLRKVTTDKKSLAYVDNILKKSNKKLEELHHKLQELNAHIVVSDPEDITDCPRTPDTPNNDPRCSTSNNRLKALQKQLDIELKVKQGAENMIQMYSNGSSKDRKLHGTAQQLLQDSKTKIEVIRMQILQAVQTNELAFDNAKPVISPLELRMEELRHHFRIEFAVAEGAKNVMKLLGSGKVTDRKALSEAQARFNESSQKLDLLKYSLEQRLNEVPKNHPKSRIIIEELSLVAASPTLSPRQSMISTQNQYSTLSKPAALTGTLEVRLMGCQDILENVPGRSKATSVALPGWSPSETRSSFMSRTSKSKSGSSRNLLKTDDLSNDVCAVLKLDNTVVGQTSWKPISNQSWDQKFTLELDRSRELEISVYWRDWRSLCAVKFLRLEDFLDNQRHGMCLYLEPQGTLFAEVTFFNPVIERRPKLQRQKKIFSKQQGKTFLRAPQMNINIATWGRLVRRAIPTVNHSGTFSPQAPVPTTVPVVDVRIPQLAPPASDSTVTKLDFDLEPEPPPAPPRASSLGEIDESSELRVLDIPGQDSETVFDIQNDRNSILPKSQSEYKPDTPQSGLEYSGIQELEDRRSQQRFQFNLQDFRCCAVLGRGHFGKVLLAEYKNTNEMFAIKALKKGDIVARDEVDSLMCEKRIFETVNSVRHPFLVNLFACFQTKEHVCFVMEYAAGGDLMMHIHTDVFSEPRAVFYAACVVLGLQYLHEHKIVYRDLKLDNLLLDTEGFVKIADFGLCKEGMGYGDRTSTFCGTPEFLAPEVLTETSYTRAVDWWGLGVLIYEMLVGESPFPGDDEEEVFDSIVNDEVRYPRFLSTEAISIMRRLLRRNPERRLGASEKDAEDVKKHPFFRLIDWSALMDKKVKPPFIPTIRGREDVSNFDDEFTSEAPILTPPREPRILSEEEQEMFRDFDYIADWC

MAP3K7 TAB1 (human) = MAP3K7 TAB1 (human) (UniProt O43318+Q15750)
HIPK2 (human) = HIPK2 (human) (UniProt Q9H2X6)
ROCK2 (human) = ROCK2 (human) (UniProt O75116)
CAMK1 (human) = CAMK1 (human) (UniProt Q14012)
PRKCH (human) = PRKCH (human) (UniProt P24723)
DYRK3 (human) = DYRK3 (human) (UniProt O43781)
KIT (human) = KIT (human) (UniProt P10721)
Chain of KIT (human) (P10721 whole entry, looked up): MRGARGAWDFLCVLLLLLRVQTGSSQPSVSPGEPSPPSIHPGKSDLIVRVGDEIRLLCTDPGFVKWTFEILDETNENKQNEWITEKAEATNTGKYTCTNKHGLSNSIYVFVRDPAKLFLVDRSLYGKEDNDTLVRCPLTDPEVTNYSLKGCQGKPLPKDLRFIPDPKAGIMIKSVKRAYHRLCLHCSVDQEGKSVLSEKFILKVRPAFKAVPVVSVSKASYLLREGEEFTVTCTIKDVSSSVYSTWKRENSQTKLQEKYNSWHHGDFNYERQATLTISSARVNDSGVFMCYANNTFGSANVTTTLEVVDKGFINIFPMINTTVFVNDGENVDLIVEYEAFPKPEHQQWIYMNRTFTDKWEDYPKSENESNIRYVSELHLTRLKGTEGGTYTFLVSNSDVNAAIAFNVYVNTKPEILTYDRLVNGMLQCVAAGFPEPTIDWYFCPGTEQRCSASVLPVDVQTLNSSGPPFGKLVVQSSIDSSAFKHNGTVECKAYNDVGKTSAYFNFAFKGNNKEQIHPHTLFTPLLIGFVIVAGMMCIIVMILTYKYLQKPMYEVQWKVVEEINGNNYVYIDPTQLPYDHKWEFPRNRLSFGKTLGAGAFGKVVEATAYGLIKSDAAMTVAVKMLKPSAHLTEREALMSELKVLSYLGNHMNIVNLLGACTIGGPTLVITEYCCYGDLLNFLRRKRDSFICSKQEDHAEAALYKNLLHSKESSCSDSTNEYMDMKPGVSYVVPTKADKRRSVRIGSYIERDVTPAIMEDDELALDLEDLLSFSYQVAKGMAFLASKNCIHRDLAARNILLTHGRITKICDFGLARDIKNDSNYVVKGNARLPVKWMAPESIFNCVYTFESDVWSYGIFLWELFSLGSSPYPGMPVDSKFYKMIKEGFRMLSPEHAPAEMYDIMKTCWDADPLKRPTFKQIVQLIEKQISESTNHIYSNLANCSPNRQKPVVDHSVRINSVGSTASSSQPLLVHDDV

CDK7 CCNH MNAT1 (human) = CDK7 CCNH MNAT1 (human) (UniProt P50613+P51948+P51946)
Chain of CDK7 CCNH MNAT1 (human) (P50613 whole entry, looked up): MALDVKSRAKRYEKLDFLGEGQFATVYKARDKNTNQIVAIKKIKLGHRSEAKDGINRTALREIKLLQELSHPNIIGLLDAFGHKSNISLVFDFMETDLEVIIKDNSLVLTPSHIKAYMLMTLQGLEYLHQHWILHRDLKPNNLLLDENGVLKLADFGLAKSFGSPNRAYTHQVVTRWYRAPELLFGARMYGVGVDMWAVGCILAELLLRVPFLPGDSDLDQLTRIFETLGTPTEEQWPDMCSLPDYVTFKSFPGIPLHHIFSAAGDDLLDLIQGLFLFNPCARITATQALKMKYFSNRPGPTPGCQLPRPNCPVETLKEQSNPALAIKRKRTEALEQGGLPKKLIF
Chain of CDK7 CCNH MNAT1 (human) (P51946 whole entry, looked up): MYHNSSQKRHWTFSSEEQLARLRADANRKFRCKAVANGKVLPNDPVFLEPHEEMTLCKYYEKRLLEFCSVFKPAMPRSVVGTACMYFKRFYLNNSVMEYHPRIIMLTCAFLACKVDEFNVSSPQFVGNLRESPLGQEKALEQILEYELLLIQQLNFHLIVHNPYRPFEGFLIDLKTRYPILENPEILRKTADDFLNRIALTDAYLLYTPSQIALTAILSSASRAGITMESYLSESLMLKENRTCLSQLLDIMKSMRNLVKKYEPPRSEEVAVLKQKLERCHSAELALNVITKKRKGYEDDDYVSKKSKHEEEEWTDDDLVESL
Chain of CDK7 CCNH MNAT1 (human) (P51948 whole entry, looked up): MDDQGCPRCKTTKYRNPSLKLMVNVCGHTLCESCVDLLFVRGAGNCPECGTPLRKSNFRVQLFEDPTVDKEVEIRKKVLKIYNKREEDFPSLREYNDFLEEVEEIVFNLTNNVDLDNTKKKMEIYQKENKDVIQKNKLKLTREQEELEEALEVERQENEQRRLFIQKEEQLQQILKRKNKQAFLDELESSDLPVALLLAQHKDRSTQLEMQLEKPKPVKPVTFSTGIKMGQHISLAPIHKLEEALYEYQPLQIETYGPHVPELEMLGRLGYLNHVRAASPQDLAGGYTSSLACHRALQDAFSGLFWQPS

ACVRL1 (human) = ACVRL1 (human) (UniProt P37023)
EPHA7 (human) = EPHA7 (human) (UniProt Q15375)
FGR (human) = FGR (human) (UniProt P09769)
PAK3 (human) = PAK3 (human) (UniProt O75914)
Chain of PAK3 (human) (O75914 whole entry, looked up): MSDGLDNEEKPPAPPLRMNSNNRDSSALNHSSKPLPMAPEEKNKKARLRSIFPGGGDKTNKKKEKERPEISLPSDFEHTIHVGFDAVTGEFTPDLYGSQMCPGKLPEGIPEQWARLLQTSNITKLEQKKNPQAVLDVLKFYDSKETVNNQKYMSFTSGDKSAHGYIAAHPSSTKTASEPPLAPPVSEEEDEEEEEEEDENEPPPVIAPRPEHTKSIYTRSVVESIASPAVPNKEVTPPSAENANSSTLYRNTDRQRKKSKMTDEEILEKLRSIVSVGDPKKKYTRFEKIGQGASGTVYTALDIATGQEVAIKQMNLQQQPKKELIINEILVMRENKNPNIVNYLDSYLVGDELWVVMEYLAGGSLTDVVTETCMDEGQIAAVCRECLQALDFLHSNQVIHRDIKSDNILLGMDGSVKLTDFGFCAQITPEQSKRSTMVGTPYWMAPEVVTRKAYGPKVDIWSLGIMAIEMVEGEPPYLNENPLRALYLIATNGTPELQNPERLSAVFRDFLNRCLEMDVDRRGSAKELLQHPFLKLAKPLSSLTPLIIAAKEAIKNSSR

VRK1 (human) = VRK1 (human) (UniProt Q99986)
TTK (human) = TTK (human) (UniProt P33981)
CDK9 CCNT1 (human) = CDK9 CCNT1 (human) (UniProt P50750+O60563)
LYN (human) = LYN (human) (UniProt P07948)
Chain of LYN (human) (P07948 whole entry, looked up): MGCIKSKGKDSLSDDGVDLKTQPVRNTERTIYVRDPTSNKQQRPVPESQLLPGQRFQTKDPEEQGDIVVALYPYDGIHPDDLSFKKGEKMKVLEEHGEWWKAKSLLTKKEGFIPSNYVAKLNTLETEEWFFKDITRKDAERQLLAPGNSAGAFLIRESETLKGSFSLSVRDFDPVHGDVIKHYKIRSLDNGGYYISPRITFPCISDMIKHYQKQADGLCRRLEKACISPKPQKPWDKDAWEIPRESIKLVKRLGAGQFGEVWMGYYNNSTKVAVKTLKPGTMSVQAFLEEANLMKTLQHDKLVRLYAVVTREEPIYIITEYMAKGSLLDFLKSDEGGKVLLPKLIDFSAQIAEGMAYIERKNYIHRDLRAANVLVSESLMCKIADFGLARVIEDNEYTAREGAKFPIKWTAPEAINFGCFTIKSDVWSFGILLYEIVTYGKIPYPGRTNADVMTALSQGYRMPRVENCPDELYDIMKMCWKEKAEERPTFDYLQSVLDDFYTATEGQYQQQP

MATK (human) = MATK (human) (UniProt P42679)
Chain of MATK (human) (P42679 whole entry, looked up): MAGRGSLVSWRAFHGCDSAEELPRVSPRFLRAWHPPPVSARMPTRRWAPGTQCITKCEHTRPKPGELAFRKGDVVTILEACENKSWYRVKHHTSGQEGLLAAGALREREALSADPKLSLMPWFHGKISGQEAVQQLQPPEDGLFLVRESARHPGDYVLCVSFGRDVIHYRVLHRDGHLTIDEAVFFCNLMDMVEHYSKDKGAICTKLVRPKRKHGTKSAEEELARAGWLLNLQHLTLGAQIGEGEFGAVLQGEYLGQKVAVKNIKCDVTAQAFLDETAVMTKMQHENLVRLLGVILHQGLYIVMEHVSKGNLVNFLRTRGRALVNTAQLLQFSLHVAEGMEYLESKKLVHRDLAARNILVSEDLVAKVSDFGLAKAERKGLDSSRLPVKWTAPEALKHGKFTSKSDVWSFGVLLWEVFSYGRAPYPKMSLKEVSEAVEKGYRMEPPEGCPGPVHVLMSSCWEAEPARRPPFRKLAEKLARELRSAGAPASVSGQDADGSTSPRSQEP

PDGFRA (human) = PDGFRA (human) (UniProt P16234)
CDK9 CCNK (human) = CDK9 CCNK (human) (UniProt O75909+P50750)
CAMK2D (human) = CAMK2D (human) (UniProt Q13557)
PIM3 (human) = PIM3 (human) (UniProt Q86V86)
PAK6 (human) = PAK6 (human) (UniProt Q9NQU5)

Nc1ncnc2c1cnn2-c1ccccc1
residual activity (CDC42BPA (human)): 90.2% | residual activity (MAP3K11 (human)): 96% | residual activity (STK3 (human)): 92.3% | residual activity (MELK (human)): 92.6% | residual activity (PIM2 (human)): 98.2% | residual activity (CSNK2A1 (human)): 94.4% | residual activity (PRKCA (human)): 103% | residual activity (ABL1 (human)): 99.4% | residual activity (MST4 (human)): 82.2% | residual activity (PRKCG (human)): 103% | residual activity (FYN (human)): 97.8% | residual activity (DSTYK (human)): 94.5% | residual activity (PAK4 (human)): 86.5% | residual activity (PBK (human)): 92.4% | residual activity (DAPK2 (human)): 96.7% | residual activity (MAP4K5 (human)): 87.2% | residual activity (PRKG2 (human)): 99.2% | residual activity (CDK5 CDK5R1 p35 (human)): 99.2% | residual activity (PKN2 (human)): 125% | residual activity (MAP3K7 TAB1 (human)): 98.9% | residual activity (HIPK2 (human)): 103% | residual activity (ROCK2 (human)): 83.2% | residual activity (CAMK1 (human)): 97.5% | residual activity (PRKCH (human)): 94.8% | residual activity (DYRK3 (human)): 96.8% | residual activity (KIT (human)): 89.5% | residual activity (CDK7 CCNH MNAT1 (human)): 102% | residual activity (ACVRL1 (human)): 109% | residual activity (EPHA7 (human)): 99.2% | residual activity (FGR (human)): 93.8% | residual activity (PAK3 (human)): 98.8% | residual activity (VRK1 (human)): 84.4% | residual activity (TTK (human)): 90.6% | residual activity (CDK9 CCNT1 (human)): 109% | residual activity (LYN (human)): 102% and 99.7% | residual activity (MATK (human)): 89.9% | residual activity (PDGFRA (human)): 103% | residual activity (CDK9 CCNK (human)): 92.9% | residual activity (CAMK2D (human)): 94.7% | residual activity (PIM3 (human)): 91.4% | residual activity (PAK6 (human)): 100%

COc1cccc(-c2cc(=O)c3ccccc3o2)c1N
residual activity (CDC42BPA (human)): 98.5% | residual activity (MAP3K11 (human)): 95.9% | residual activity (STK3 (human)): 97.1% | residual activity (MELK (human)): 94% | residual activity (PIM2 (human)): 99.3% | residual activity (CSNK2A1 (human)): 94.9% | residual activity (PRKCA (human)): 102% | residual activity (ABL1 (human)): 93.9% | residual activity (MST4 (human)): 110% | residual activity (PRKCG (human)): 100% | residual activity (FYN (human)): 97.3% | residual activity (DSTYK (human)): 97.1% | residual activity (PAK4 (human)): 88.1% | residual activity (PBK (human)): 97.6% | residual activity (DAPK2 (human)): 107% | residual activity (MAP4K5 (human)): 91.1% | residual activity (PRKG2 (human)): 101% | residual activity (CDK5 CDK5R1 p35 (human)): 101% | residual activity (PKN2 (human)): 81% | residual activity (MAP3K7 TAB1 (human)): 98.7% | residual activity (HIPK2 (human)): 116% | residual activity (ROCK2 (human)): 91.5% | residual activity (CAMK1 (human)): 98.5% | residual activity (PRKCH (human)): 87% | residual activity (DYRK3 (human)): 90.3% | residual activity (KIT (human)): 92.2% | residual activity (CDK7 CCNH MNAT1 (human)): 99.9% | residual activity (ACVRL1 (human)): 93.5% | residual activity (EPHA7 (human)): 98.6% | residual activity (FGR (human)): 94.8% | residual activity (PAK3 (human)): 90.7% | residual activity (VRK1 (human)): 89.4% | residual activity (TTK (human)): 99% | residual activity (CDK9 CCNT1 (human)): 93.6% | residual activity (LYN (human)): 94.6% and 98.7% | residual activity (MATK (human)): 88.6% | residual activity (PDGFRA (human)): 103% | residual activity (CDK9 CCNK (human)): 98.3% | residual activity (CAMK2D (human)): 91.5% | residual activity (PIM3 (human)): 90.9% | residual activity (PAK6 (human)): 95.5%
